Results taken from patent publication US6812231B2, “Benzamidine derivative” (Ajinomoto Co., Inc., priority 1998, dated 2004).

Experiments:
[1] = biological target: T1, activated human blood coagulation factor X (Homo sapiens, UniProt P00742); assay: Determination of activity of inhibiting the activated blood-coagulation factor X (chromogenic substrate, initial rate); type: biochemical; details: tris hydrochloride buffer pH 8.4, room temperature, absorbance 405 nm; for IC50: read-out: Activity of inhibiting activated blood coagulation factor X (pIC50) (converted)
T1 construct: purchased Enzyme Research Co
Method: Determination of Activity of Inhibiting the Activated Blood-coagulation Factor X
130 μl of 100 mM tris hydrochloride buffer adjusted to pH 8.4 was added to 10 μl of an aqueous solution of a compound to be tested. Then 10 μl of a 0.5 unit/ml solution of activated human blood coagulation factor X (a product of Enzyme Research Co.) in tris hydrochloride of pH 8.4 was added to the resultant mixture. After the incubation at room temperature for 10 minutes, 50 μl of a solution of N-benzoyl-L-isoleucyl-L-glutamyl-glycyl-L-arginyl-P-nitroanilide hydrochloride (a product of Peptide Institute, Inc.) adjusted to 0.8 mM with tris hydrochloride (pH 8.4) was added thereto. The absorbance was determined and then the initial reaction rate was determined. A control was prepared in the same manner as that described above except that the solution of the compound to be tested was replaced with 10 μl of tris hydrochloride buffer adjusted to pH 8.4. The absorbance was determined with MICROPLATE READER Model 3550-UV (a product of BIO RAD) at a wave length of 405 nm at intervals of 15 seconds for 16 minutes.

human thrombin = biological target: T2, human thrombin (Homo sapiens, UniProt P00734); assay: Determination of thrombin-inhibiting activity (chromogenic substrate S-2238, initial rate); type: biochemical; details: tris hydrochloride buffer pH 8.4, room temperature, absorbance 405 nm; for IC50: read-out: Thrombin-inhibiting activity (pIC50) (converted)
T2 construct: solution of human thrombin (a product of SIGMA Co.); purchased SIGMA Co
Method: Determination of Thrombin-inhibiting Activity
130 μl of 100 mM tris hydrochloride buffer adjusted to pH 8.4 was added to 10 μl of an aqueous solution of a test compound. Then 10 μl of a solution of human thrombin (a product of SIGMA Co.) adjusted to 2 units/ml with tris hydrochloride buffer of pH 8.4 was added to the resultant mixture. After the incubation at room temperature for 10 minutes, 50 μl of a solution of D-phenylalanyl-L-pipecolyl-L-arginyl-P-nitroanilide dihydrochloride (S-2238; a product of Daiichi Kagaku Yakuhin Co.) adjusted to 0.4 mM with tris hydrochloride buffer of pH 8.4 was added thereto. The absorbance was determined and then the initial reaction rate was determined. A control was prepared in the same manner as that described above except that the solution of the compound to be tested was replaced with 10 μl of tris hydrochloride buffer adjusted to pH 8.4. The absorbance was determined with MICROPLATE READER Model 3550-UV (a product of […]) at a wave length of 405 nm at intervals of 15 seconds for 16 minutes.

T1 sequence (P00742 235-488 limits assumed): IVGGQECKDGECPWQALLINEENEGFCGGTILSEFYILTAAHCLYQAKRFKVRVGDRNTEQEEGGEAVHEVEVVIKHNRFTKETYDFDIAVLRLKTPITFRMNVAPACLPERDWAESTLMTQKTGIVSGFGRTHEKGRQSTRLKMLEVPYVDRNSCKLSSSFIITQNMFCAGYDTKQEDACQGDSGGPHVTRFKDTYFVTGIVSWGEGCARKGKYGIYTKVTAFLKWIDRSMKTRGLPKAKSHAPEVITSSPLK
T1 sequence (P00742 41-179 partner limits assumed): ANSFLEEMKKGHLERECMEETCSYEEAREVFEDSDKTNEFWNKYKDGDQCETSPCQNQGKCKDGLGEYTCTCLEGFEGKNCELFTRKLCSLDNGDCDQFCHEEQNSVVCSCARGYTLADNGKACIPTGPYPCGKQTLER

Compound | Activity of inhibiting activated blood coagulation factor X (pIC50) [1] | Thrombin-inhibiting activity (pIC50) (human thrombin) | IC50 [1] | IC50 (human thrombin)
N=C(N)c1ccc(CCC(=O)O)c(OCCNC(=O)C2CCN(c3ccncc3)CC2)c1.O=C(O)C(F)(F)F.O=C(O)C(F)(F)F [Compd. of Ex. 6] | 7.4 | <3.0 |  | 
CC(=N)N1CCC(Oc2ccc(C(=O)NCCOc3cc(C(=N)N)ccc3CCC(=O)O)cc2)CC1.O=C(O)C(F)(F)F.O=C(O)C(F)(F)F [Compd. of Ex. 4, 3-[4-amidino-2-(2-(4-(1-(1-acetimidoyl)-4-piperidyloxy)benzoylamino)ethoxy)phenyl]propionic acid bistrifluoroacetate] | 7.5 | <3.0 |  | 
COC(=O)c1ccc(C(=N)N)cc1OCCNC(=O)c1ccc(OC2CCN(C(C)=N)CC2)cc1.O=C(O)C(F)(F)F.O=C(O)C(F)(F)F [Compd. of Ex. 38, methyl 4-amidino-2-[2-(4-[1-(1-acetimidoyl)-4-piperidyloxy]benzoylamino)ethoxy]benzoate bistrifluoroacetate] |  | 3.3 |  | 
CC(=N)N1CCC(Oc2ccc(C(=O)N[C@@H](COc3cc(C(=N)N)ccc3CCC(=O)O)CC(=O)O)cc2)CC1.O=C(O)C(F)(F)F.O=C(O)C(F)(F)F [Compd. of Ex. 10, (3R)-4-[5-amidino-2-(2-carboxyethyl)phenoxy]-3-[4-(1-(1-acetimidoyl)-4-piperidyloxy)benzoylamino]butanoic acid bistrifluoroacetate] | 7.4 | <3.0 |  | 
N=C(N)c1ccc(CO)c(OCCNC(=O)C2CCN(c3ccncc3)CC2)c1.O=C(O)C(F)(F)F.O=C(O)C(F)(F)F [Compd. of Ex. 37, N-[2-(5-amidino-2-hydroxymethylphenoxy)ethyl]-1-(1-(1-pyridine-4-yl)piperidine)carboxamide bistrifluoroacetate] | 7.3 | <4.0 |  | 
N=C(N)c1ccc(CCCO)c(OCCNC(=O)C2CCN(c3ccncc3)CC2)c1.O=C(O)C(F)(F)F.O=C(O)C(F)(F)F [Compd. of Ex. 43, N-[2-(5-amidino-2-hydroxypropylphenoxy)ethyl]-1-(1-(1-pyridine-4-yl)piperidine)carboxamide bistrifluoroacetate] | 7.8 | <4.0 |  | 
CN1CCN=C1c1ccc(C(=O)NCCOc2cc(C(=N)N)ccc2CC(=O)C(=O)O)cc1.O=C(O)C(F)(F)F.O=C(O)C(F)(F)F [Compd. of Ex. 51] | 8.1 | 4.3 |  | 
CC(=N)N1CCC(Oc2ccc(C(=O)NCCOc3cc(C(=N)N)ccc3O)cc2)CC1 [Compd. of Ex. 14, N-[2-(5-amidino-2-hydroxyphenoxy)ethyl]-4-(1-acetimidoyl-4-piperidyloxy)benzamide bistrifluoroacetate] |  |  | 15.8 nM | > 100000 nM
CC(=N)N1CCC(Oc2ccc(C(=O)NCCOc3cc(C(=N)N)ccc3C=CC(=O)O)cc2)CC1.O=C(O)C(F)(F)F.O=C(O)C(F)(F)F [Compd. of Ex. 2, 3-[4-amidino-2-(2-(4-(1-(1-acetimidoyl)-4-piperidyloxy)benzoylamino)ethoxy)phenyl]acrylic acid bistrifluoroacetate] |  | <3.0 |  | 
N-[2-(5-amidino-2-hydroxyphenoxy)ethyl]-1-(4-pyridyl)-4-piperidine-4-carboxamide bistrifluoroacetate [Compd. of Ex. 15] | 8 | <4.0 |  | 
3-[4-amidino-(2R)-2-((1-(pyridine-4-yl)piperidine-4-carbonyl)pyrrolidine-2-ylmethoxy)phenyl]propionic acid bistrifluoroacetate [Compd. of Ex. 26] | 7.8 | <4.0 |  | 
CC(=N)N1CCC(Oc2ccc(C(=O)N[C@@H](COc3cc(C(=N)N)ccc3O)CC(=O)O)cc2)CC1 [Compd. of Ex. 28, (3R)-4-(5-amidino-2-hydroxyphenoxy)-3-[4-(1-acetimidoyl-4-piperidyloxy)benzoylamino]butanoic acid bistrifluoroacetate] |  |  | 15.8 nM | > 100000 nM
N=C(N)c1ccc(CCC(=O)O)c(OC[C@@H](CC(=O)O)NC(=O)C2CCN(c3ccncc3)CC2)c1 [Compd. of Ex. 13, (3R)-4-[5-amidino-2-(2-carboxyethyl)phenoxy]-3-[(1-(pyridine-4-yl)piperidine-4-carbonyl)amino]butanoic acid bistrifluoroacetate] |  |  | 25.1 nM | > 794000 nM
N=C(N)c1ccc(O)c(OC[C@@H](CC(=O)O)NC(=O)C2CCN(c3ccncc3)CC2)c1 [Compd. of Ex. 29, (3R)-4-(5-amidino-2-hydroxyphenoxy)-3-[(1-(pyridine-4-yl)piperidine-4-carbonyl)amino]butanoic acid bistrifluoroacetate] |  |  | 12.6 nM | > 100000 nM
CCOC(=O)CCc1ccc(C(=N)N)cc1OCCNC(=O)C1CCN(c2ccncc2)CC1 [Compd. of Ex. 5, ethyl 3-[4-amidino-2-(2-((1-(pyridine-4-yl)piperidine-4-carbonyl)amino)ethoxy)phenyl]propionate bistrifluoroacetate] |  |  | 63.1 nM | 6310 nM
3-[4-amidino-2-(2-((1-(1-methylpyridinium-4-yl)piperidine-4-carbonyl)amino)ethoxy)phenyl]-2-oxopropionic acid bistrifluoroacetate [Compd. of Ex. 52] | 7.1 | 4.2 |  | 
ethyl (3R)-4-[5-amidino-2-(2-ethoxycarbonylethyl)phenoxy]-3-[4-(1-(1-acetimidoyl)-4-piperidyloxy)benzoylamino]butanoate bistrifluoroacetate [Compd. of Ex. 9] |  | 5.5 |  | 
(3R)-3-[4-amidino-2-(3-ethoxycarbonyl-2-(4-(1-(1-acetimidoyl)-4-piperidyloxy)benzoylamino)propoxy)phenyl]acrylic acid bistrifluoroacetate [Compd. of Ex. 8] |  | <3.0 |  | 
